In BindingDB's records for doi:10.7270/Q2SJ1J08 (University of Pittsburgh, 2007):

molecular target: T1, M-phase inducer phosphatase 2 (Homo sapiens, UniProt P30305); assay: Cdc25B catalytic domain inhibitors, dose response, biochemical, 25 mM DTT, catalase, probe assessment (AID 669)
T1 sequence (P30305 whole entry): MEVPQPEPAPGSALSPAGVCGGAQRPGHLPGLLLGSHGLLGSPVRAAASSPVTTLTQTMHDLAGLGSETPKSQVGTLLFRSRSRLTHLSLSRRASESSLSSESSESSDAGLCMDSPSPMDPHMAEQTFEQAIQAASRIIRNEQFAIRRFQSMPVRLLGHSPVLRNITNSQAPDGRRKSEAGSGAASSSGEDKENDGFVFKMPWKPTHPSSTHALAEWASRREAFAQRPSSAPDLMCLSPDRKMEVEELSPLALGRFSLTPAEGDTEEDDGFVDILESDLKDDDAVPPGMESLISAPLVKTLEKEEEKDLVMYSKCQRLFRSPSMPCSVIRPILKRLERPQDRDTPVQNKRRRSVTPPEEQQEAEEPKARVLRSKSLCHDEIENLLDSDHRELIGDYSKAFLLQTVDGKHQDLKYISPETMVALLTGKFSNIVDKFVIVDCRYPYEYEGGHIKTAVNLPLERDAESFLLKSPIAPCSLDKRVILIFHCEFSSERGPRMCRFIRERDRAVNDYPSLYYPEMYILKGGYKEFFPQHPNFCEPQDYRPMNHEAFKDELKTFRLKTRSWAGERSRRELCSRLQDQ

**Q.** How did the IC50 turn out when `O=C(Nc1ccc2nc(-c3ccco3)c(-c3ccco3)nc2c1)N1CCCCCC1` was run?
**A.** The IC50 was 40.9 µM.

**Q.** With `Cc1ccc2c(c1C)NC(C(=O)O)C1CC=CC21` (stereo not drawn) as the molecule, how does the IC50 read?
**A.** The IC50 was 20.5 µM.

**Q.** For `O=C(O)C1Nc2c(O)cccc2C2C=CCC12` (stereo not drawn), which IC50 is on record?
**A.** The IC50 was 16 µM.

**Q.** `Cn1ncnc2c(=O)n(C)c(=O)nc1-2` was tested. Which IC50 did it give?
**A.** The IC50 was greater than 50 µM.

**Q.** Which IC50 does the source give for `[O-]/[N+](=C\c1ccncc1)c1ccccc1` here?
**A.** Its IC50 is greater than 50 µM.

**Q.** With `COc1cccc2c(C)c(C(=O)O)[nH]c12` as the molecule, how does the IC50 read?
**A.** The IC50 was 11.4 µM.

**Q.** `O=C1C=Cc2ccccc2C1=O` [1,2-dihydronaphthalene-1,2-dione] was tested. Which IC50 did it give?
**A.** Its IC50 is greater than 50 µM.

**Q.** Which IC50 does the source give for `CCn1nc(-c2ccccc2)nc2c(=O)n(C)c(=O)nc1-2` [1-Ethyl-6-methyl-3-phenyl-1H-pyrimido[5,4-e][1,2,4]triazine-5,7-dione] here?
**A.** Its IC50 is greater than 50 µM.

**Q.** For `[O-]/[N+](=C\c1ccc(OC(F)F)cc1)c1ccccc1` [1-[4-(difluoromethoxy)phenyl]-N-phenylmethanimine oxide], which IC50 is on record?
**A.** Its IC50 is greater than 50 µM.

**Q.** With `CCn1nc(-c2cccs2)nc2c(=O)n(C)c(=O)nc1-2` [1-ethyl-6-methyl-3-thiophen-2-yl-pyrimido[5,4-e][1,2,4]triazine-5,7-dione] as the molecule, how does the IC50 read?
**A.** Its IC50 is greater than 50 µM.

**Q.** How did the IC50 turn out when `O=C1Cc2ccccc2C(=O)N1CCc1ccccc1` [2-(2-phenylethyl)-4H-isoquinoline-1,3-dione] was run?
**A.** Its IC50 is greater than 50 µM.

**Q.** For `N#Cc1c(N)sc(=S)c2c1CCN(Cc1ccccc1)C2` [3-Amino-7-benzyl-1-thioxo-5,6,7,8-tetrahydro-1H-thiopyrano[3,4-c]pyridine-4-carbonitrile], which IC50 is on record?
**A.** Its IC50 is greater than 50 µM.

**Q.** With `Cc1ccccc1Nc1cc2ccccc2c(O)n1` [3-[(2-methylphenyl)amino]-2H-isoquinolin-1-one] as the molecule, how does the IC50 read?
**A.** The IC50 was greater than 50 µM.

**Q.** With `COc1ccc(Br)cc1C=c1sc2nc(-c3ccco3)nn2c1=O` [5-[(5-bromanyl-2-methoxy-phenyl)methylidene]-2-(furan-2-yl)-[1,3]thiazolo[3,2-b][1,2,4]triazol-6-one] as the molecule, how does the IC50 read?
**A.** The IC50 was 16.8 µM.

**Q.** How did the IC50 turn out when `CC(=O)Nc1cc(OC(C)=O)c2nonc2c1OC(C)=O` [Acetic acid 7-acetoxy-5-acetylamino-benzo[1,2,5]oxadiazol-4-yl ester] was run?
**A.** The IC50 was greater than 50 µM.

**Q.** Which IC50 does the source give for `CCOC(=O)C(C(=O)OCC)c1cc(Br)c2noc3c2c1C(=O)c1ccccc1-3` [MLS000038842] here?
**A.** Its IC50 is greater than 50 µM.

**Q.** With `Oc1nc(Nc2ccccc2)cc2ccccc12` [MLS000043701] as the molecule, how does the IC50 read?
**A.** Its IC50 is greater than 50 µM.

**Q.** How did the IC50 turn out when `O=C1C=Cc2ccccc2/C1=C/NC12CN3CCN(CN(C3)C1)C2` [MLS000071484] was run?
**A.** The IC50 was greater than 50 µM.

**Q.** Which IC50 does the source give for `Cc1c(N=c2c(=O)c3ccccc3c2=O)c(=O)n(-c2ccccc2)n1C` [MLS000105950] here?
**A.** Its IC50 is greater than 50 µM.

**Q.** With `CCOc1ccc2noc3c2c1C(=O)c1ccccc1-3` [MLS000106837] as the molecule, how does the IC50 read?
**A.** Its IC50 is greater than 50 µM.

**Q.** Which IC50 does the source give for `COc1ccc2noc3c2c1C(=O)c1ccccc1-3` [MLS000106874] here?
**A.** The IC50 was greater than 50 µM.

**Q.** How did the IC50 turn out when `c1ccc(CSc2nnc(-c3ccco3)c(-c3ccco3)n2)cc1` [MLS-0029114.0001] was run?
**A.** Its IC50 is greater than 50 µM.

**Q.** `Cc1ccc2c(c1)C1C=CCC1C(C(=O)O)N2` (stereo not drawn) [MLS-0067149.0001] was tested. Which IC50 did it give?
**A.** The IC50 was 12.1 µM.

**Q.** Which IC50 does the source give for `O=C(NC1(O)C(=O)c2ccccc2C1=O)c1ccccc1` [N-(2-hydroxy-1,3-dioxo-2-indenyl)benzamide] here?
**A.** The IC50 was greater than 50 µM.

**Q.** Which IC50 does the source give for `COc1cccc2c1NC(C(=O)O)C1CC=CC21` (stereo not drawn) [SMR000009698] here?
**A.** Its IC50 is 13.2 µM.

**Q.** How did the IC50 turn out when `O=C(OC1CCCCC1)c1ccc2c(c1)C1C=CCC1C(C(=O)O)N2` (stereo not drawn) [SMR000019385] was run?
**A.** The IC50 was 8.69 µM.

**Q.** Which IC50 does the source give for `N#Cc1c(N2CCCC2)nc(N)c2c(N)nc(N3CCCC3)cc12` [SMR000061605] here?
**A.** The IC50 was greater than 50 µM.

**Q.** With `Nc1cccc2cnccc12` [isoquinolin-5-amine] as the molecule, how does the IC50 read?
**A.** Its IC50 is greater than 50 µM.
